{"source": "patent US10125138B2", "about": "“Triazolotriazinone derivatives having activity a s herbicides” (Syngenta Participations AG, priority 2015, dated 2018)", "format_in_all_cases": "in vivo", "details_in_all_cases": "1000 g/h, evaluated after 13 days, five point scale", "key": {"Solanum nigrum (SOLNI) [1]": {"tested_on": "Solanum nigrum (SOLNI)", "test": "Pre-emergence glasshouse herbicide test, Solanum nigrum", "method": "(§1) Seeds of a variety of test species are sown in standard soil in pots (Lolium perenne (LOLPE), Solanum nigrum (SOLNI), Amaranthus retoflexus (AMARE), Setaria faberi (SETFA), Echinochloa crus-galli (ECHCG), Ipomoea hederacea (IPOHE)). After cultivation for one day (pre-emergence) or after 8 days cultivation (post-emergence) under controlled conditions in a glasshouse (at 24/16° C., day/night; 14 hours light; 65% humidity), the plants are sprayed with an aqueous spray solution derived from the formulation of the technical active ingredient in acetone/water (50:50) solution containing 0.5% Tween 20 (polyoxyethelyene sorbitan monolaurate, CAS RN 9005-64-5). Compounds are applied at 1000 g/h. The test plants are then grown in a glasshouse under controlled conditions in a glasshouse (at 24/16° C., day/night; 14 hours light; 65% humidity) and watered twice daily. After 13 days for pre and post-emergence, the test is evaluated for the percentage damage caused to the plant. The biological activities are shown in the following table on a five point scale (5=80-100%; 4=60-79%; 3=40-59%; 2=20-39%; 1=0-19%)."}, "[2]": {"tested_on": "Echinochloa crus-galli (ECHCG)", "test": "Post-emergence glasshouse herbicide test, Echinochloa crus-galli"}, "Setaria faberi (SETFA) [3]": {"tested_on": "Setaria faberi (SETFA)", "test": "Pre-emergence glasshouse herbicide test, Setaria faberi"}, "[4]": {"tested_on": "Ipomoea hederacea (IPOHE)", "test": "Post-emergence glasshouse herbicide test, Ipomoea hederacea"}, "[5]": {"tested_on": "Ipomoea hederacea (IPOHE)", "test": "Pre-emergence glasshouse herbicide test, Ipomoea hederacea"}, "Setaria faberi (SETFA) [6]": {"tested_on": "Setaria faberi (SETFA)", "test": "Post-emergence glasshouse herbicide test, Setaria faberi"}, "[7]": {"tested_on": "Echinochloa crus-galli (ECHCG)", "test": "Pre-emergence glasshouse herbicide test, Echinochloa crus-galli"}, "Lolium perenne (LOLPE) [8]": {"tested_on": "Lolium perenne (LOLPE)", "test": "Pre-emergence glasshouse herbicide test, Lolium perenne"}, "[9]": {"tested_on": "Amaranthus retoflexus (AMARE)", "test": "Post-emergence glasshouse herbicide test, Amaranthus retoflexus"}, "Solanum nigrum (SOLNI) [10]": {"tested_on": "Solanum nigrum (SOLNI)", "test": "Post-emergence glasshouse herbicide test, Solanum nigrum", "method": "as §1"}, "[11]": {"tested_on": "Amaranthus retoflexus (AMARE)", "test": "Pre-emergence glasshouse herbicide test, Amaranthus retoflexus"}, "Lolium perenne (LOLPE) [12]": {"tested_on": "Lolium perenne (LOLPE)", "test": "Post-emergence glasshouse herbicide test, Lolium perenne"}}}
{"smiles": "CCCCn1nnnc1NC(=O)c1nn2cnn(-c3ccc(F)cc3)c2nc1=O", "note": "[Compound 1.039]", "values": [{"measurement": "percentage damage caused to the plant, PRE Application SOLNI", "setting": "Solanum nigrum (SOLNI) [1]", "value": "5 (5=80-100%)"}, {"measurement": "percentage damage caused to the plant, POST Application ECHCG", "setting": "[2]", "value": "5 (5=80-100%)"}, {"measurement": "percentage damage caused to the plant, PRE Application SETFA", "setting": "Setaria faberi (SETFA) [3]", "value": "5 (5=80-100%)"}, {"measurement": "percentage damage caused to the plant, POST Application IPOHE", "setting": "[4]", "value": "5 (5=80-100%)"}, {"measurement": "percentage damage caused to the plant, PRE Application IPOHE", "setting": "[5]", "value": "4 (4=60-79%)"}, {"measurement": "percentage damage caused to the plant, POST Application SETFA", "setting": "Setaria faberi (SETFA) [6]", "value": "5 (5=80-100%)"}, {"measurement": "percentage damage caused to the plant, PRE Application ECHCG", "setting": "[7]", "value": "5 (5=80-100%)"}, {"measurement": "percentage damage caused to the plant, PRE Application LOLPE", "setting": "Lolium perenne (LOLPE) [8]", "value": "5 (5=80-100%)"}, {"measurement": "percentage damage caused to the plant, POST Application AMARE", "setting": "[9]", "value": "5 (5=80-100%)"}, {"measurement": "percentage damage caused to the plant, POST Application SOLNI", "setting": "Solanum nigrum (SOLNI) [10]", "value": "5 (5=80-100%)"}, {"measurement": "percentage damage caused to the plant, PRE Application AMARE", "setting": "[11]", "value": "5 (5=80-100%)"}, {"measurement": "percentage damage caused to the plant, POST Application LOLPE", "setting": "Lolium perenne (LOLPE) [12]", "value": "5 (5=80-100%)"}]}
{"smiles": "CCCCn1nnnc1NC(=O)c1nn2cnn(-c3ccc(OC)cc3)c2nc1=O", "note": "[Compound 1.040]", "values": [{"measurement": "percentage damage caused to the plant, PRE Application SOLNI", "setting": "Solanum nigrum (SOLNI) [1]", "value": "5 (5=80-100%)"}, {"measurement": "percentage damage caused to the plant, POST Application ECHCG", "setting": "[2]", "value": "3 (3=40-59%)"}, {"measurement": "percentage damage caused to the plant, PRE Application SETFA", "setting": "Setaria faberi (SETFA) [3]", "value": "5 (5=80-100%)"}, {"measurement": "percentage damage caused to the plant, POST Application IPOHE", "setting": "[4]", "value": "5 (5=80-100%)"}, {"measurement": "percentage damage caused to the plant, PRE Application IPOHE", "setting": "[5]", "value": "5 (5=80-100%)"}, {"measurement": "percentage damage caused to the plant, POST Application SETFA", "setting": "Setaria faberi (SETFA) [6]", "value": "4 (4=60-79%)"}, {"measurement": "percentage damage caused to the plant, PRE Application ECHCG", "setting": "[7]", "value": "5 (5=80-100%)"}, {"measurement": "percentage damage caused to the plant, PRE Application LOLPE", "setting": "Lolium perenne (LOLPE) [8]", "value": "5 (5=80-100%)"}, {"measurement": "percentage damage caused to the plant, POST Application AMARE", "setting": "[9]", "value": "4 (4=60-79%)"}, {"measurement": "percentage damage caused to the plant, POST Application SOLNI", "setting": "Solanum nigrum (SOLNI) [10]", "value": "5 (5=80-100%)"}, {"measurement": "percentage damage caused to the plant, PRE Application AMARE", "setting": "[11]", "value": "3 (3=40-59%)"}, {"measurement": "percentage damage caused to the plant, POST Application LOLPE", "setting": "Lolium perenne (LOLPE) [12]", "value": "5 (5=80-100%)"}]}
{"smiles": "CCn1nnnc1NC(=O)c1nn2cnn(-c3ccc(C(F)(F)F)cc3)c2nc1=O", "note": "[Compound 1.042]", "values": [{"measurement": "percentage damage caused to the plant, PRE Application SOLNI", "setting": "Solanum nigrum (SOLNI) [1]", "value": "5 (5=80-100%)"}, {"measurement": "percentage damage caused to the plant, POST Application ECHCG", "setting": "[2]", "value": "3 (3=40-59%)"}, {"measurement": "percentage damage caused to the plant, PRE Application SETFA", "setting": "Setaria faberi (SETFA) [3]", "value": "5 (5=80-100%)"}, {"measurement": "percentage damage caused to the plant, POST Application IPOHE", "setting": "[4]", "value": "4 (4=60-79%)"}, {"measurement": "percentage damage caused to the plant, PRE Application IPOHE", "setting": "[5]", "value": "4 (4=60-79%)"}, {"measurement": "percentage damage caused to the plant, POST Application SETFA", "setting": "Setaria faberi (SETFA) [6]", "value": "4 (4=60-79%)"}, {"measurement": "percentage damage caused to the plant, PRE Application ECHCG", "setting": "[7]", "value": "5 (5=80-100%)"}, {"measurement": "percentage damage caused to the plant, PRE Application LOLPE", "setting": "Lolium perenne (LOLPE) [8]", "value": "4 (4=60-79%)"}, {"measurement": "percentage damage caused to the plant, POST Application AMARE", "setting": "[9]", "value": "4 (4=60-79%)"}, {"measurement": "percentage damage caused to the plant, POST Application SOLNI", "setting": "Solanum nigrum (SOLNI) [10]", "value": "5 (5=80-100%)"}, {"measurement": "percentage damage caused to the plant, PRE Application AMARE", "setting": "[11]", "value": "5 (5=80-100%)"}, {"measurement": "percentage damage caused to the plant, POST Application LOLPE", "setting": "Lolium perenne (LOLPE) [12]", "value": "3 (3=40-59%)"}]}
{"smiles": "CCCn1nnnc1NC(=O)c1nn2cnn(-c3ccc(C(F)(F)F)cc3)c2nc1=O", "note": "[Compound 1.043]", "values": [{"measurement": "percentage damage caused to the plant, PRE Application SOLNI", "setting": "Solanum nigrum (SOLNI) [1]", "value": "5 (5=80-100%)"}, {"measurement": "percentage damage caused to the plant, POST Application ECHCG", "setting": "[2]", "value": "1 (1=0-19%)"}, {"measurement": "percentage damage caused to the plant, PRE Application SETFA", "setting": "Setaria faberi (SETFA) [3]", "value": "5 (5=80-100%)"}, {"measurement": "percentage damage caused to the plant, POST Application IPOHE", "setting": "[4]", "value": "4 (4=60-79%)"}, {"measurement": "percentage damage caused to the plant, PRE Application IPOHE", "setting": "[5]", "value": "3 (3=40-59%)"}, {"measurement": "percentage damage caused to the plant, POST Application SETFA", "setting": "Setaria faberi (SETFA) [6]", "value": "4 (4=60-79%)"}, {"measurement": "percentage damage caused to the plant, PRE Application ECHCG", "setting": "[7]", "value": "2 (2=20-39%)"}, {"measurement": "percentage damage caused to the plant, PRE Application LOLPE", "setting": "Lolium perenne (LOLPE) [8]", "value": "3 (3=40-59%)"}, {"measurement": "percentage damage caused to the plant, POST Application AMARE", "setting": "[9]", "value": "5 (5=80-100%)"}, {"measurement": "percentage damage caused to the plant, POST Application SOLNI", "setting": "Solanum nigrum (SOLNI) [10]", "value": "5 (5=80-100%)"}, {"measurement": "percentage damage caused to the plant, PRE Application AMARE", "setting": "[11]", "value": "4 (4=60-79%)"}, {"measurement": "percentage damage caused to the plant, POST Application LOLPE", "setting": "Lolium perenne (LOLPE) [12]", "value": "3 (3=40-59%)"}]}
{"smiles": "CCCCn1nnnc1NC(=O)c1nn2cnn(-c3ccc(C(F)(F)F)cc3)c2nc1=O", "note": "[Compound 1.044]", "values": [{"measurement": "percentage damage caused to the plant, PRE Application SOLNI", "setting": "Solanum nigrum (SOLNI) [1]", "value": "5 (5=80-100%)"}, {"measurement": "percentage damage caused to the plant, POST Application ECHCG", "setting": "[2]", "value": "1 (1=0-19%)"}, {"measurement": "percentage damage caused to the plant, PRE Application SETFA", "setting": "Setaria faberi (SETFA) [3]", "value": "3 (3=40-59%)"}, {"measurement": "percentage damage caused to the plant, POST Application IPOHE", "setting": "[4]", "value": "5 (5=80-100%)"}, {"measurement": "percentage damage caused to the plant, PRE Application IPOHE", "setting": "[5]", "value": "3 (3=40-59%)"}, {"measurement": "percentage damage caused to the plant, POST Application SETFA", "setting": "Setaria faberi (SETFA) [6]", "value": "3 (3=40-59%)"}, {"measurement": "percentage damage caused to the plant, PRE Application ECHCG", "setting": "[7]", "value": "2 (2=20-39%)"}, {"measurement": "percentage damage caused to the plant, PRE Application LOLPE", "setting": "Lolium perenne (LOLPE) [8]", "value": "3 (3=40-59%)"}, {"measurement": "percentage damage caused to the plant, POST Application AMARE", "setting": "[9]", "value": "4 (4=60-79%)"}, {"measurement": "percentage damage caused to the plant, POST Application SOLNI", "setting": "Solanum nigrum (SOLNI) [10]", "value": "5 (5=80-100%)"}, {"measurement": "percentage damage caused to the plant, PRE Application AMARE", "setting": "[11]", "value": "3 (3=40-59%)"}, {"measurement": "percentage damage caused to the plant, POST Application LOLPE", "setting": "Lolium perenne (LOLPE) [12]", "value": "3 (3=40-59%)"}]}
